The source of these data is patent publication US7321056B2, “Selective peroxisome proliferator activated receptor modulators” (Eli Lilly and Company, priority 2003, dated 2008).

The structures appear in SMILES notation.

For data set [1], the target named is T1, PPARα (Homo sapiens, UniProt Q07869).
T1 construct: made in house; host or cells: baculovirus expression system
Put plainly: Competitive displacement binding assay (SPA), PPARα. The following applies: PPARα/RXRα. The method, then:
Binding assays are performed using scintillation proximity assay (SPA) technology, PPAR receptors, and corresponding radiolabeled ligands. PPARα and PPARγ along with their heterodimeric partner, retinoid X receptor α, are each produced using a baculovirus expression system. Biotinylated oligonucleotides containing PPAR response elements (PPREs) are used to couple the corresponding receptor dimers to yttrium silicate streptavidin-coated SPA beads. PPARγ- and PPARα-specific ligands are labeled with tritium and used in the appropriate corresponding assays. The IC50 values (compound concentration which causes 50% inhibition) for each competing compound are calculated after deduction of non-specific binding (measured in the presence of 10 μM unlabeled ligand). Compounds are evaluated using an 11-point dose response curve with concentrations ranging from 0.169 nM to 10 μM. Reported values represent means from one to seven separate experiments.

Data set [2] addresses T2, PPARγ ligand binding domain / CREB-binding protein (CBP) (Homo sapiens, UniProt P37231).
T2 construct: expressed in transfected cells; host or cells: CV-1 cells
Nature of the data set: Co-factor recruitment assay (mammalian-2-hybrid, CV-1 cells), CBP. The following applies: for CBP Eff: relative to a PPARγ full agonist. The data set is classed as cell-based. From the text: A mammalian-2-hybrid assay system in CTF format is done in CV-1 cells. The following plasmids are used: a mammalian expression vector encoding a fusion of the GAL4 DNA binding domain with the PPARγ ligand binding domain; a mammalian expression vector encoding a fusion of the VP16 transactivation domain with the nuclear receptor interaction domain of the respective co-activators: CREB-binding protein (CBP), peroxisome proliferator-activated receptor gamma coactivator-1 (PGC-1), activating signal cointegrator-2 (ASC-2), thyroid hormone receptor-activated protein complex (TRAP220), and the peptide C33; and a reporter plasmid (multimerized GAL4 binding sites/minimal TK promoter driving a luciferase cDNA). Cells are transfected in batch format and treated with compound (full log dilution from 0.1 nM to 10 μM) or vehicle for 24 hours. Subsequently, the cells are lysed and luciferase activity is measured. Luciferase activity serves as the endpoint for interaction between co-activator and receptor. The data are presented as % efficacy relative to a PPARγ full agonist and represent means from four to six separate experiments.

T2 sequence (P37231 238-503 limits assumed, species assumed): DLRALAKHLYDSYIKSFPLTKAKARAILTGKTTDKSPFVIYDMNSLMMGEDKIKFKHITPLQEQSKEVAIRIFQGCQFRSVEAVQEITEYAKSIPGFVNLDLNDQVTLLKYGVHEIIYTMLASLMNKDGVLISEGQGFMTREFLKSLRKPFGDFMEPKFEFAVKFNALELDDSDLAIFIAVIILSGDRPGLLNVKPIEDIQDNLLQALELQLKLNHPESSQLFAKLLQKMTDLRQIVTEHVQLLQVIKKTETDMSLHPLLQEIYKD
T2 sequence (Q92793 whole entry partner, species assumed, the tested form may be a part): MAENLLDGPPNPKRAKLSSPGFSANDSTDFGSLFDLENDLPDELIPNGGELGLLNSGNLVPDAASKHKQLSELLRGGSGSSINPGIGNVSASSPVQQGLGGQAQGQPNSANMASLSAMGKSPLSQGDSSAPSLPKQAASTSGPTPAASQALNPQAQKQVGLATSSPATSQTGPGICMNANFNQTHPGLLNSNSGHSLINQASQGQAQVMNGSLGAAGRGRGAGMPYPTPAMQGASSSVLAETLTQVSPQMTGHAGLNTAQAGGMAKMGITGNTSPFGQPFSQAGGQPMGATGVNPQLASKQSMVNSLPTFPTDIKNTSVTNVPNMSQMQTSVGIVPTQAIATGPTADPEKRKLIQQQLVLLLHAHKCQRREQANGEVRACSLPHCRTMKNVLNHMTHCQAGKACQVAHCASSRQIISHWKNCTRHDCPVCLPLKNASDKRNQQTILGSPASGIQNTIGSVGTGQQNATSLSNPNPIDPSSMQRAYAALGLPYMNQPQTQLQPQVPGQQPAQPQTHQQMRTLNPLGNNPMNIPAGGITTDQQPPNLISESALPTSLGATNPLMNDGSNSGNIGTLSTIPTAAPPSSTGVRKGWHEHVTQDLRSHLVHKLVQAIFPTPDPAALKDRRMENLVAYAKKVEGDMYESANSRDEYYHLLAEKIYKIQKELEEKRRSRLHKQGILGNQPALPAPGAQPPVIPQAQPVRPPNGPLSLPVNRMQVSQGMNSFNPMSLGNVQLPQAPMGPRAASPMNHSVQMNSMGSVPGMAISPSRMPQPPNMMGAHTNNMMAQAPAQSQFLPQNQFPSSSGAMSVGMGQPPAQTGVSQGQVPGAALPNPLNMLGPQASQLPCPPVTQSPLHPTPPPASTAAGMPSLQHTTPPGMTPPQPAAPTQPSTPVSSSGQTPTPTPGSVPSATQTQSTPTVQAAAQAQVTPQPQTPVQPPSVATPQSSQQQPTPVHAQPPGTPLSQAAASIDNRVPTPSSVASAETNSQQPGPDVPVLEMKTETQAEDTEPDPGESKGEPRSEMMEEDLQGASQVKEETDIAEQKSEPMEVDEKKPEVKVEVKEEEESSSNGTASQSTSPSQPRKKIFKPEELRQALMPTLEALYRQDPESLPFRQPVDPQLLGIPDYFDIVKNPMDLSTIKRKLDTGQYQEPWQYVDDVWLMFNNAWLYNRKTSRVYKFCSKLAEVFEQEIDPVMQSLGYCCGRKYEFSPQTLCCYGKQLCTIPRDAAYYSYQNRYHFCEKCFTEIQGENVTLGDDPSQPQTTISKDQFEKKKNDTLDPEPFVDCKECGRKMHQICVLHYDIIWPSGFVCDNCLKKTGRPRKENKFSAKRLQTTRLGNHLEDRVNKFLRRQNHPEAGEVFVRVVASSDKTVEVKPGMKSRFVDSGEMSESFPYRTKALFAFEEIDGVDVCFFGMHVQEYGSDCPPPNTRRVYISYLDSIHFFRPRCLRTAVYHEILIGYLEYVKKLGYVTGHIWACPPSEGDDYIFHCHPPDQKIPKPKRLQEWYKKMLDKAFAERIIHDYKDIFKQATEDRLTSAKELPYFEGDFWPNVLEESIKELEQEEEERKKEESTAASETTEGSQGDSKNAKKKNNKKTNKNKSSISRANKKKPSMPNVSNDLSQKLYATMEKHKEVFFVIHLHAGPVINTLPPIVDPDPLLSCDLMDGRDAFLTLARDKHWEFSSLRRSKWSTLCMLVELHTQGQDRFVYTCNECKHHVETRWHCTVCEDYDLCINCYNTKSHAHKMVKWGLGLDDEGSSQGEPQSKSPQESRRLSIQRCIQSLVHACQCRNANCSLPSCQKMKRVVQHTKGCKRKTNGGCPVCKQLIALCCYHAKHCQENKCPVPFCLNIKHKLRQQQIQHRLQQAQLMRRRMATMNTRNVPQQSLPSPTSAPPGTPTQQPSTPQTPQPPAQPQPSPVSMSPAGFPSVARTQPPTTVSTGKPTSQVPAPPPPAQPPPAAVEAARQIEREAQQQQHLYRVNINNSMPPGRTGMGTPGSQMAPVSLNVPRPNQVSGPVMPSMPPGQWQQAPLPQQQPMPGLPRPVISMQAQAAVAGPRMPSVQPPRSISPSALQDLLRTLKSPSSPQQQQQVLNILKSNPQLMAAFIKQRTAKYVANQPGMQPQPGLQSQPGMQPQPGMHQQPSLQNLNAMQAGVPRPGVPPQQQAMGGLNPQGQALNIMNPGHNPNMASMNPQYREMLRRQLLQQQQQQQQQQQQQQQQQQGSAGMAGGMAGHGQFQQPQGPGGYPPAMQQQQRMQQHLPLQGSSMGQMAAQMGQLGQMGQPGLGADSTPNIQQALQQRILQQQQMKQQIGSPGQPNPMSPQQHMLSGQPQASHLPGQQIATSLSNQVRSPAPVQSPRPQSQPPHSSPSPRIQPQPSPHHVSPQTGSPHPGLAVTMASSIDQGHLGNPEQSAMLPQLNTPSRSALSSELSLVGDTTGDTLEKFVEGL
T1 sequence (Q07869 whole entry): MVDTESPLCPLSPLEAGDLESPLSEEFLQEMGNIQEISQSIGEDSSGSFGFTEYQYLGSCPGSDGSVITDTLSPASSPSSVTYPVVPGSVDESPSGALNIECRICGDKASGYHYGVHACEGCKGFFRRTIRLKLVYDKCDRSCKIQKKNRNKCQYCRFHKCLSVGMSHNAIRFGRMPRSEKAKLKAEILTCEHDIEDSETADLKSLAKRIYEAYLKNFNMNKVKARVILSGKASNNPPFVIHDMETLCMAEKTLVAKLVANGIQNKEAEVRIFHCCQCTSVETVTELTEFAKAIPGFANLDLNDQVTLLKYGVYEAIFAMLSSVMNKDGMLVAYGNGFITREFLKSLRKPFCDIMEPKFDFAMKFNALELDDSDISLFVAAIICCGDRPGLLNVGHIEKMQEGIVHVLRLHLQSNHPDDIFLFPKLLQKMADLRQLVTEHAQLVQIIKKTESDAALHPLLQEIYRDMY
T1 sequence (P19793 whole entry, further chain): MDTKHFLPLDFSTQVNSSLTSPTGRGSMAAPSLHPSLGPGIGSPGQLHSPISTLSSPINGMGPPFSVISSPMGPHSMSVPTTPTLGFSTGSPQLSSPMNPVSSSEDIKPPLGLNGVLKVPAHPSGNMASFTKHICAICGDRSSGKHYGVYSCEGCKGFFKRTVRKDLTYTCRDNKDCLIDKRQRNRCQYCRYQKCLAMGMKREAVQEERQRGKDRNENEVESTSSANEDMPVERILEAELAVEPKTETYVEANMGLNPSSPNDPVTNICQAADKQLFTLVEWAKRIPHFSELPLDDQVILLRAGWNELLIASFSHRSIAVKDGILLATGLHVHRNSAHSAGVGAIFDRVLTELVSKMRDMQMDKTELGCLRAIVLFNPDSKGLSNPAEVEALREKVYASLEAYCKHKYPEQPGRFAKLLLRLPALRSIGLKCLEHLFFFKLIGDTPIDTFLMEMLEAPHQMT

`CCOc1ccc(CCNC(=O)COc2ccc(C[C@H](OC)C(=O)O)cc2)cc1` [formula V, (S)-3-(4-{[2-(4-ethoxy-phenyl)-ethylcarbamoyl]-methoxy}-phenyl)-2-methoxy-propionic acid]: the IC50 in data set [1] is 0.36 µM. Also, in data set [2], the midpoint of the response, the EC50, lay at 2.64 µM and the “CBP Eff” value is on record as 18 % efficacy.
`COc1ccc(CCNC(=O)COc2ccc(C[C@H](OC)C(=O)O)cc2)cc1` [formula III, (2S)-3-(4-{[2-(4-methoxy-phenyl)-ethylcarbamoyl]-methoxy}-phenyl)-2-methoxy-propionic acid] yielded a melting point of 97 to 98 °C. In data set [1], this molecule gave an IC50 of 0.113 µM. In data set [2], a half-maximal response (EC50) required 1.92 µM and the “CBP Eff” value stood at 15 % efficacy.
